Measured values as given in patent publication US20240352046A1, “ECTONUCLEOTIDE PYROPHOSPHATASE-PHOSPHODIESTERASE-1 (ENPP1) INHIBITORS AND USES THEREOF” (1cBio, Inc., priority 2020, published 2024).
Read-outs that look alike come from different tables or passages of the source.

What was measured:
[1] = test system: IP-10 release in differentiated THP-1 cells; experiment: IP-10 cytokine release assay in THP-1 cell lines; assay type: cell-based, Human; settings: for EC50: Homo sapiens, IP-10 release over cGAMP induced release; for Percent release IP-10 (Absolute): differentiated THP-1
Experimental: Percent release of Interferon gamma-induced protein 10 (IP-10) was determined in acute monocytic leukemia (THP-1; ATCC® TIB-202™) cell line. THP-1 cells (0.2×10^6 cells/well) were differentiated using phorbol 12-myristate 13-acetate (PMA, 10 nM (final concentration); Cat #P8139, Sigma) and incubated for 24 h at 37° C., 5% CO2 in an incubator (cell culture conditions) prior to treating with serial dilutions of compounds (3 fold, 6 point dose response starting at 10 μM). After treatment with the compounds cells were further incubated for 2 h under cell culture conditions and then exposed to 2′,3′-cGAMP (c-GAMP, 1 μM (final concentration); Cat #SML 1229, Sigma). Differentiated THP-1 cells were further cultured for 24 h after which the supernatant was harvested, and ELISA was performed as per the manufacturer's protocol (BD optEIA Human IP-10 ELISA Set; Cat #550926 & 550534, BD Biosciences). Plates were read in Biotek plate reader by measuring absorbance at 450 nm.
The release of absolute IP-10 in differentiated THP-1 by compounds in the presence of cGAMP was quantified with reference to standard after subtracting blank (negative) reading from the test readings. The absolute release of IP-10 in the presence of cGAMP (1 μM) is given in the bar-graph (FIG.-1) and in the table-B2a.
The release of IP-10 in differentiated THP-1 by compounds over cGAMP induced release at four different concentrations of cGAMP (1, 5, 10 & 30 μM) was quantified with reference to standard by normalizing the blank (negative) subtracted test readings from average of cGAMP activated cells at that particular concentration. The EC50's was calculated by fitting the curve to the “four-parameter variable slope logistic model” using Prism Graph Pad.

[2] = test system: IFN-β release in differentiated THP-1 cells; experiment: IFN-β cytokine release assay in THP-1; assay type: cell-based; settings: Homo sapiens, read-out: EC50 (μM) @ 1 μM of cGAMP; IFN-β release over cGAMP induced release, THP-1, 1 μM cGAMP
Experimental: Percent release of Interferon Beta (IFN-03) was determined in acute monocytic leukemia (THP-1; ATCC® TIB-202™) cell line. THP-1 cells (0.3×10^6 cells/well) were differentiated using phorbol 12-myristate 13-acetate (PMA, 50 ng/mL; Cat #P8139, Sigma) and incubated for 24 h at 37° C., 5% CO2 in an incubator (cell culture conditions) prior to treating with serial dilutions of compounds (3 fold, 5 point dose response starting at […]). After treatment with the compounds cells were further incubated for 2 h under cell culture conditions and then exposed to 2′,3′-cGAMP (c-GAMP, 1 μM; Cat #SML 1229, Sigma). Differentiated THP-1 cells were further cultured for 6 h after which the supernatant was harvested, and ELISA was performed as per the manufacturer's protocol (Human IFN-beta Quantikine ELISA Kit; Cat #DIFNB0, R&D systems). Plates were read in Biotek plate reader by measuring absorbance at 450 nm.

[3] = test system: IP-10 release in mouse splenocytes; experiment: IP-10 in mouse splenocyte assay; assay type: cell-based, Balb/c mice; settings: activated Balb/c splenocytes, cGAMP 1 μM, 48 hr
Experimental: Percent release of Interferon gamma-induced protein 10 (IP-10) was determined in mouse splenocytes isolated from Balb/c mice. Mouse splenocytes (2.5*10^5 cells/well) were activated with Anti-mouse CD3e (3 μg/ml, coated overnight at 4° C.; Cat #14-0032-82, eBioscience) and then incubated with Anti-mouse CD28 (3 μg/ml soluble; Cat #16-0289-81, eBiosciences) for 24 h at 37° C., 5% CO2 in an incubator (cell culture conditions) prior to treating them with serial dilutions of compounds (3 fold, 6 point dose response starting at 30 μM). After treatment with the compounds cells were further incubated for 2 h under cell culture conditions and then treated with 2′,3′-cGAMP (c-GAMP, 1 μM; Cat #SML 1229, Sigma). Splenocytes were further incubated under cell culture conditions for 48 hr after which the supernatant was harvested, and ELISA was performed as per the manufacturer's protocol (mIP-10 kit; Cat #DY466-05 & DY008, R&D Systems). Plates were read in Biotek plate reader by measuring absorbance at 450 nm.

[4] = test system: IFN-β release in mouse splenocytes; experiment: IFN-β in mouse splenocyte assay; assay type: cell-based, Balb/c mice; settings: activated Balb/c splenocytes, cGAMP 1 μM, 24 hr
Experimental: Percent release of Interferon Beta (IFN-03) is determined in mouse splenocytes isolated from Balb/c mice. Mouse splenocytes ([…] cells/well) were activated with Anti-mouse CD3e (3 μg/mil, coated overnight at 4° C.; Cat #14-0032-82, eBioscience) and then incubated with Anti-mouse CD28 (3 μg/ml soluble; Cat #16-0289-81, eBiosciences) for 24 h at 37° C., 5% CO2 in an incubator (cell culture conditions) prior to treating them with serial dilutions of compounds (3 fold, 6 point dose response starting at 30 μM). After treatment with the compounds cells are further incubated for 2 h under cell culture conditions and then treated with 2′,3′-cGAMP (c-GAMP, 1 μM; Cat #SML 1229, Sigma). Splenocytes were further incubated under cell culture conditions for 24 hr after which the supernatant was harvested, and ELISA was performed as per the manufacturer's protocol (mIFN-β kit; Cat #MIFNB0 & DY008, R&D Systems). Plates were read in Biotek plate reader by measuring absorbance at 450 nm.

[5] = biological target: ENPP-1 (Ectonucleotide Pyrophosphatase/Phosphodiesterase 1) (Homo sapiens (Human), UniProt P22413); experiment: ENPP1 inhibition assay (AMP Glo, cGAMP substrate); assay type: biochemical; settings: cGAMP 20 μM substrate, ENPP1 1 nM
Sequence of ENPP-1 (Ectonucleotide Pyrophosphatase/Phosphodiesterase 1) (P22413 whole entry): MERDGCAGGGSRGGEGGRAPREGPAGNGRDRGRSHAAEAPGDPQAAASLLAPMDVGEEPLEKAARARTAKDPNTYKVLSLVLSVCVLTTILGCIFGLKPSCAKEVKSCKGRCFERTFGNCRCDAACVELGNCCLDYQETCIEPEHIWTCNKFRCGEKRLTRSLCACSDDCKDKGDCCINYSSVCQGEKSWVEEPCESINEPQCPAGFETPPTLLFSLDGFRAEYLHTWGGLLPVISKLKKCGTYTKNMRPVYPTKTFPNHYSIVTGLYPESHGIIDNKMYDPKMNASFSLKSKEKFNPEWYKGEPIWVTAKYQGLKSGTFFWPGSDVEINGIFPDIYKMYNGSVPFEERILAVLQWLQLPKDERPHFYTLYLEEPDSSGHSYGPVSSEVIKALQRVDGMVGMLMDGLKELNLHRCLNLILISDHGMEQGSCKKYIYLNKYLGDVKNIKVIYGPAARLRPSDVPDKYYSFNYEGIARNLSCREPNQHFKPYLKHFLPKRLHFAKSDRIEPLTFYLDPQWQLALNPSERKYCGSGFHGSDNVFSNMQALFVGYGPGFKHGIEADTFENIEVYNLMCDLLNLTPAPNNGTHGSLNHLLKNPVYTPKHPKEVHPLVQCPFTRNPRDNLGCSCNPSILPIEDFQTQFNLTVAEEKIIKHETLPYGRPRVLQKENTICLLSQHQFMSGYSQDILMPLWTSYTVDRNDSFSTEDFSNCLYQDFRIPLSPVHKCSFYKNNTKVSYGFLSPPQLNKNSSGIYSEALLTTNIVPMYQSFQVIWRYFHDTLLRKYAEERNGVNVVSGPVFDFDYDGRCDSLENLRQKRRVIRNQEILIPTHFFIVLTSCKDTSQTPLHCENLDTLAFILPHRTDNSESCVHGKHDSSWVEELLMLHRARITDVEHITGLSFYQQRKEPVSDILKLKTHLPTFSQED

[6] = read-out: EC50 (μM)@ 1 μM of cGAMP, THP-1, 1 μM cGAMP

## COc1cc2ncnc(N3CC(CCNS(N)(=O)=O)C3)c2cc1OC [Compound 1.1, (2-(1-(6,7-dimethoxyquinazolin-4-yl)azetidin-3-yl)ethyl)aminisulfonamide]
[1]; [6]
  EC50: 0.308 µM
[1]; read-out: EC50 (μM)@ 10 μM of cGAMP, THP-1, 10 μM cGAMP
  EC50: 0.471 µM
[1]; read-out: EC50 (μM)@ 30 μM of cGAMP, THP-1, 30 μM cGAMP
  EC50: 0.624 µM
[1]; THP-1, 5 μM cGAMP, read-out: EC50 (μM)@ 5 μM of cGAMP
  EC50: < 0.12 µM
[1]; cGAMP (1 μM) + compound 0.37 μM
  Percent release IP-10 (Absolute): 8.9%
[1]; cGAMP (1 μM) + compound 1.11 μM
  Percent release IP-10 (Absolute): 11.4%
[1]; cGAMP (1 μM) + compound 3.33 μM
  Percent release IP-10 (Absolute): 13.1%
[1]; cGAMP (1 μM) + compound 10 μM
  Percent release IP-10 (Absolute): 18.3%
[1]; cGAMP (1 μM) + compound […]
  Percent release IP-10 (Absolute): 7.0%
[2]
  EC50: < 3.35 µM
[3]
  IC50: 1720 nM
[4]
  IC50: 3.09 µM
[5]
  IC50: 0.008 µM

## Cc1cc(Cl)n2ncnc(N3CC4(CC(N(C)S(N)(=O)=O)C4)C3)c12 [Compound 1.76, N-[2-(7-chloro-5-methylpyrrolo[2,1-f][1,2,4]triazin-4-yl)-2-azaspiro[3.3]hept-6-yl]-N-methylsulfuric diamide]
[1]; [6]
  EC50: 0.071 µM
[2]
  EC50: < 0.12 µM
[3]
  IC50: 1780 nM
[4]
  IC50: 3.26 µM
[5]
  IC50: 0.084 µM
